Source: patent US5116839A, “Use of isoxazolin-3-one derivatives as antidepressants” (Sankyo Company, Limited, priority 1989, dated 1992)
Where a name gives a salt, the structure may show the parent alone.

What was measured:
reserpine-induced ptosis = test: Effect on reserpine-induced ptosis in the mouse; assay type: in vivo, mouse (male ddY); conditions: reserpine 2 mg/kg s.c.; for inhibition at 30 mg/kg / inhibition at 100 mg/kg / inhibition at 3 mg/kg / inhibition at 10 mg/kg: Mus musculus, 1.5 h, scored after 90 minutes, read-out: Inhibition rate (antagonism against reserpine-induced ptosis)
Method: (§1) The procedure employed in the tests will be explained concretely below:
1. Effect on reserpine-induced ptosis in the mouse
Male ddY mice (4 weeks of age, body weight 22-27 g) were used, divided into the indicated groups each consisting of 3 or 6 animals. The test compounds were dissolved or suspended in an appropriate solvent (physiological saline, 0.5% CMC or 1% dimethylsulfoxide solution) and were orally administered immediately before treatment with reserpine.
The vials containing the test solutions were labeled with coded ciphers and the administration was carried out in randomized order.
The mice were then subcutaneously treated with reserpine at a dose of 2 mg/kg. After 90 minutes, the extent of ptosis was scored. Grading of the score was based on the shape of eye immediately after the mice were taken out from their cages;
0: round eye shape, as normal
The inhibition rate at each dose was calculated from the scores according to the following equation: [formula] The inhibition rate was then scored on the following basis: […]

Acute toxicity, oral = assay type: in vivo; conditions: 300 mg/kg oral in 0.5% CMC, 5 mice, observed 5 days; Compound 36 as its hydrochloride
Method: Each of the Compounds 11, 36 (as its hydrochloride), 53, 76, and 87 dissolved in a 0.5% CMC solution was orally administered to 5 mice at a dose of 300 mg/kg. Observations were made for a period of 5 days.

[1] = apparently exerted; cited from earlier work
[2] = system: spontaneous locomotor activities in mice treated with L-DOPA; test: Potentiating effect upon spontaneous locomotor activities in mice treated with L-DOPA; assay type: in vivo, mouse (male ddY); conditions: for Average locomotor activities (+/- S.E.): 1 hour, MK-486 20 mg/kg i.p. then L-DOPA i.p.
Method: as §1
2. Potentiating effect of compounds upon spontaneous locomotor activities in mice treated with L-DOPA
Male ddY mice (5 weeks old, body weight 30-33 g) were used, after divided into groups each consisting of 5 animals (experiment 1) or 15 animals (experiment 2). The test compounds were prepared as described in the anti-reserpine study, and given orally 20 minutes before administration of MK-486. In control animals, saline was similarly administered. In order to prevent decomposition of L-DOPA at the peripheral site, the mice were intraperitoneally given MK-486 (carbidopa) at a dose of 20 mg/kg and treated intraperitoneally 30 minutes later with L-DOPA. The mice were placed in a cage on a locomotor activity counter (AUTOMEX-11), one-by-one (experiment 1) or 3 mice a cage (experiment 2). Spontaneous locomotor activities were determined for an hour, and the average locomotor activity at each dose was calcultated from 5 counts. The spontaneous locomotor activity in animals treated with the compound was statistically analyzed versus the control group using Student's two-tailed t-test.

[3] = system: spontaneous locomotor activities in mice treated with L-5-HTP; test: Potentiating effect upon spontaneous locomotor activities in mice treated with L-5-HTP; assay type: in vivo, mouse (male ddY); conditions: 3 mg/kg oral; MK-486 20 mg/kg i.p.; L-5-HTP 100 mg/kg i.p.; 15 mice; 1 hour; saline 2147(+/-334); P <0.01
Method: as §1
3. Potentiating effect of compounds upon spontaneous locomotor activities in mice treated with L-5-HTP
Male ddY mice (4 weeks old, body weight 22-25 g) were used, after divided into groups each consisting of 15 mice. Before administration of MK-486 (20 mg/kg, IP), either the test compound formulation or vehicle (control group) was orally administered. At 30 min after administration of […], L-5-HTP (100 mg/kg IP) was injected. Spontaneous locomotor activities were determined from 15 minutes after L-5-HTP. For this determination, 3 mice were placed in a locomotor counter (Automex) for an hour and the total count noted. Five such apparatuses were used for each dose, in order to eliminate different sensitivities of each apparatus. Thus, 15 mice were used in total for each dose. The average count and SE were calculated from the 5 determinations for each dose, and statistically analyzed versus control group using Student's two-tailed t-test.

Structure (SMILES): OC(COc1noc(-c2ccccc2)c1Cl)CN1CCOCC1 (stereo not drawn) [Compound 53, 4-Chloro-3-(2-hydroxy-3-morpholino-propoxy)-5-phenylisoxazole]
- Score (antagonism against reserpine-induced ptosis) (reserpine-induced ptosis; 30 mg/kg oral): ± (41% to 70%)
- inhibition at 30 mg/kg (reserpine-induced ptosis; 30 mg/kg oral): 55%
- Survival (acute toxicity) (Acute toxicity, oral): all the mice survived
- Symptoms (acute toxicity) (Acute toxicity, oral): No particular symptoms were detected

Structure (SMILES): OC(COc1cc(-c2ccc(Cl)cc2)on1)CN1CCOCC1 (stereo not drawn) [Compound 76, 5-(p-Chlorophenyl)-3-(2-hydroxy-3-morpholinopropoxy)isoxazole]
- Score (antagonism against reserpine-induced ptosis) (reserpine-induced ptosis; 100 mg/kg oral): + (71% or more)
- inhibition at 100 mg/kg (reserpine-induced ptosis; 100 mg/kg oral): 71%
- Survival (acute toxicity) (Acute toxicity, oral): all the mice survived
- Symptoms (acute toxicity) (Acute toxicity, oral): No particular symptoms were detected

Structure (SMILES): NC(=O)OCC(O)Cn1oc2ccc(Cl)cc2c1=O (stereo not drawn) [Compound 87, 2-(3-Carbamoyloxy-2-hydroxypropyl)-5-chlorobenzoisoxazolin-3-one]
- Score (antagonism against reserpine-induced ptosis) (reserpine-induced ptosis; 30 mg/kg oral): + (71% or more)
- Score (antagonism against reserpine-induced ptosis) (reserpine-induced ptosis; 100 mg/kg oral): + (71% or more)
- inhibition at 30 mg/kg (reserpine-induced ptosis; 30 mg/kg oral): 75%
- inhibition at 100 mg/kg (reserpine-induced ptosis; 100 mg/kg oral): 100%
- Survival (acute toxicity) (Acute toxicity, oral): all the mice survived
- Symptoms (acute toxicity) (Acute toxicity, oral): No particular symptoms were detected

Structure (SMILES): OC(COc1cc(-c2ccccc2)on1)CN1CCOCC1 (stereo not drawn) [Compound 36, 3-(2-Hydroxy-3-morpholinopropoxy)-5-phenylisoxazole]
- Score (antagonism against reserpine-induced ptosis) (reserpine-induced ptosis; 100 mg/kg oral): + (71% or more)
- inhibition at 100 mg/kg (reserpine-induced ptosis; 100 mg/kg oral): 71%
- Survival (acute toxicity) (Acute toxicity, oral): all the mice survived
- Symptoms (acute toxicity) (Acute toxicity, oral): No particular symptoms were detected

Structure (SMILES): CN(C)CCCN1c2ccccc2CCc2ccccc21 [imipramine, 10,11-dihydro-N,N-dimethyl-5H-dibenz[b,f]azepine-5-propanamine]
- Anticholinergic activity of reference (in words) [1]: anticholinergic activity which is apparently exerted

Structure (SMILES): O=c1cc(-c2ccc(Cl)cc2)on1CC(O)CN1CCOCC1 (stereo not drawn) [Compound 11, 5-p-chlorophenyl-2-(2-hydroxy-3-morpholinopropyl)-4-isoxazolin-3-one]
- Score (antagonism against reserpine-induced ptosis) (reserpine-induced ptosis; 3 mg/kg oral): ± (41% to 70%)
- Score (antagonism against reserpine-induced ptosis) (reserpine-induced ptosis; 10 mg/kg oral): ± (41% to 70%)
- Score (antagonism against reserpine-induced ptosis) (reserpine-induced ptosis; 30 mg/kg oral): + (71% or more)
- inhibition at 3 mg/kg (reserpine-induced ptosis; 3 mg/kg oral): 50%
- inhibition at 10 mg/kg (reserpine-induced ptosis; 10 mg/kg oral): 56%
- inhibition at 30 mg/kg (reserpine-induced ptosis; 30 mg/kg oral): 72%
- Spontaneous locomotor activity with treatment of L-DOPA (in words) ([2]; 50 mg/kg): significantly increased
- Average locomotor activities (+/- S.E.) ([2]; experiment 1: 50 mg/kg oral, 5 mice one-by-one, control 160(+/-128), P <0.05): 3355(+/-878)
- Survival (acute toxicity) (Acute toxicity, oral): all the mice survived
- Symptoms (acute toxicity) (Acute toxicity, oral): No particular symptoms were detected

Structure (SMILES): CN(C)CCCN1c2ccccc2CCc2ccccc21 [Imipramine.HCl, reference compound]
- Score (antagonism against reserpine-induced ptosis) (reserpine-induced ptosis; 30 mg/kg oral): ± (41% to 70%)
- inhibition at 30 mg/kg (reserpine-induced ptosis; 30 mg/kg oral): 61%

Structure (SMILES): O=c1cc(-c2ccc(Cl)cc2)on1C[C@@H](O)CN1CCOCC1 [Compound 22, (S)-5-(p-Chlorophenyl)-2-(2-hydroxy-3-morpholinopropyl)isoxazolin-3-one]
- Average spontaneous locomotor activity (+/- SE) [3]: 3544(+/-318)
- Score (antagonism against reserpine-induced ptosis) (reserpine-induced ptosis; 3 mg/kg oral): ± (41% to 70%)
- Score (antagonism against reserpine-induced ptosis) (reserpine-induced ptosis; 10 mg/kg oral): ± (41% to 70%)
- Score (antagonism against reserpine-induced ptosis) (reserpine-induced ptosis; 30 mg/kg oral): + (71% or more)
- inhibition at 3 mg/kg (reserpine-induced ptosis; 3 mg/kg oral): 56%
- inhibition at 10 mg/kg (reserpine-induced ptosis; 10 mg/kg oral): 81%
- inhibition at 30 mg/kg (reserpine-induced ptosis; 30 mg/kg oral): 100%
- Average locomotor activities (+/- S.E.) ([2]; experiment 2: 50 mg/kg oral, 15 mice, 3 mice a cage, control 666(+/-137), P <0.001): 6013(+/-629)
